Measured values published in paper PMC4324493, “Synthesis, ^68Ga-Radiolabeling, and Preliminary In Vivo Assessment of a Depsipeptide-Derived Compound as a Potential PET/CT Infection Imaging Agent” (BioMed Research International, 2015).
Residues, ends and D or L forms follow the SMILES beside them. No end group written: not given here. *: point of attachment. DOTA = O=C(O)CN1CCN(CC(=O)O)CCN(CC(=O)*)CCN(CC(=O)O)CC1

How the values were obtained:
[1] = in vitro; type: cell-based; details: human; for CC50 at 120 h: MT-4 cells
Method: The reduction of 2,3-bis-(2-methoxy-4-nitro-5-sulfophenyl)-2-H-tetrazolium-5-carboxanilide (XTT) was used to determine the cellular cytotoxicity of TBIA101, DOTA-TBIA101, and ^natGa-DOTA-TBIA101, as described by Scudiero et al.. MT-4 cells were obtained through the NIH AIDS Reagent Program, Division of AIDS, NIAID, NIH: MT-4 from Dr. Douglas Richman and were cultured and all incubations were done in RPMI medium containing 10% fetal calf serum at 37°C and 5% CO2-atmosphere. A 6 × 10^5 cells/mL concentration was used to seed cells into 96-well culture plates (total cell number of 2 × 10^4 per well) followed by exposure to eight 5-fold dilutions of the stock compound solutions (1 mg/mL). The plates were incubated for 5 days before XTT was added to react for 4 h. Formazan production was quantified, measuring absorbance at 450 nm (reference wavelength 620 nm), and related to the absorbance of untreated control cells (RPMI background). Cytotoxicity was determined by extrapolating the inhibitory concentration at 50% (IC50).

[2] = test system: Staphylococcus aureus (ATCC 25923) (S. aur); assay: Bacterial association assay (MALDI-TOF-MS), S. aur; type: binding; details: for affinity binding constant (K): S. aur 1.5 × 10^8 CFU, 20-100 μM compound, 37°C, 3 h, MALDI-TOF-MS; for bacterial binding and internalization (qualitative): S. aur, membrane-associated (sample 1) and cell-internalized (sample 2) fractions by MALDI-TOF-MS
Method: (§1) MALDI-TOF-MS analysis was performed on an Autoflex III MALDI-TOF mass spectrometer (Bruker, Coventry, United Kingdom) with a 337 nm nitrogen laser operating in a linear mode at an accelerated voltage of 20 kV. The α-cyano-4-hydroxycinnamic acid matrix was applied: the matrix solution was prepared by making a saturated solution of the matrix powder into TA30 solution (30% ACN and 70% water containing 0.1% TFA). A MALDI plate-sandwich method was used by spotting the compounds between spots of matrix solution. Analyses were done in triplicates; spectra were collected manually and the mass peak intensities were recorded. S. aur and E. coli strains were cultured at 37°C overnight and tested with the peptide (TBIA101), the peptide-conjugate (DOTA-TBIA101), and the gallium(III)-complexed derivative (^natGa-DOTA-TBIA101). The bacterial concentration was kept at 1.5 × 10^8 colony forming units (CFU). Five different concentrations (20, 40, 60, 80, and 100 μM) of the above-mentioned compounds were used for all experiments, following the described method. The final reaction volume was 600 μL. Bacteria and compound mixtures were incubated at 37°C in an orbital shaker at 100 rpm for 3 h. After incubation, the cells were centrifuged at 3000 ×g for 20 min and the supernatant was removed. The bacterial pellet was washed twice with 200 μL of phosphate buffered saline (pH 7.4) and 200 μL of 80% ACN containing 0.1% TFA was added to dissolve the pellet followed by vigorous mixing followed by centrifugation at 3000 ×g for 20 min. The supernatant (sample 1) was collected, representing the membrane-associated compound fraction. The residual pellet was treated with 200 μL of 80% ACN (sample 2), representing the cell-internalized compound fraction. Bacterial persistence in samples 1 and 2 was qualified with MALDI-TOF-MS.

[3] = test system: E. coli (ATCC 25922); assay: Bacterial association assay (MALDI-TOF-MS), E. coli; type: binding, Escherichia coli; details: for Kd: E. coli 1.5 × 10^8 CFU, 20-100 μM compound, 37°C, 3 h, MALDI-TOF-MS, read-out: affinity binding constant (K); for bacterial binding and internalization (qualitative): E. coli, membrane-associated (sample 1) and cell-internalized (sample 2) fractions by MALDI-TOF-MS
Method: as §1

Compound: CC[C@H](C)[C@H](NC(=O)CNC(=O)CNC(=O)CN1CCN(CC(=O)O)CCN(CC(=O)O)CCN(CC(=O)O)CC1)C(=O)N[C@H](C(=O)N[C@@H](CC(C)C)C(=O)N[C@H](C(=O)N1CCC[C@H]1C(=O)N[C@@H](CC(C)C)C(=O)N1CCC[C@H]1C(N)=O)C(C)C)[C@@H](C)O [DOTA-TBIA101] ({DOTA}-GGITLVPLP-NH2)
- CC50 at 120 h [1]: 42.1 µM
- affinity binding constant (K) [2]: 0.029 ± 0.006 nM
- bacterial binding and internalization (qualitative) [2]: binding and no detectable internalization
- Kd [3]: 0.028 ± 0.006 nM
- bacterial binding and internalization (qualitative) [3]: binding and no detectable internalization

Compound: CC[C@H](C)[C@H](NC(=O)[C@@H](NC(=O)[C@H](CC(C)C)NC(=O)[C@@H](NC(=O)[C@@H]1CCCN1C(=O)[C@H](CC(C)C)NC(=O)[C@@H]1CCCN1C(=O)CN1CCN(CC(=O)O)CCN(CC(=O)O)CCN(CC(=O)O)CC1)C(C)C)[C@@H](C)O)C(=O)NCC(=O)NCC(N)=O [natGa-DOTA-TBIA101, metal not drawn] ({DOTA}-PLPVLTIGG-NH2)
- IC50 at 5 days [1]: 33.7 µM
- affinity binding constant (K) [2]: 2.97 ± 0.86 nM
- bacterial binding and internalization (qualitative) [2]: internalization
- Kd [3]: 2.58 ± 1.04 nM
- bacterial binding and internalization (qualitative) [3]: internalization

Compound: GGITLVPLP-NH2 (C-terminus assumed) [TBIA101]
- CC50 at 120 h [1]: 63.2 µM
- affinity binding constant (K) [2]: 0.023 ± 0.007 nM
- bacterial binding and internalization (qualitative) [2]: binding and internalization
- Kd [3]: 0.022 ± 0.006 nM
- bacterial binding and internalization (qualitative) [3]: binding and internalization
